Data: BindingDB's records for doi:10.1016/j.bioorg.2014.11.005 (Charles University In Prague, 2015)

Key:
[1] = biological target: Carboxylic ester hydrolase (Equus caballus, UniProt Q9N1N9); assay: Ellman's Method
[2] = biological target: Acetylcholinesterase (Electrophorus electricus, UniProt O42275); assay: Ellman's Method
Acetylcholinesterase, sequence (O42275 whole entry): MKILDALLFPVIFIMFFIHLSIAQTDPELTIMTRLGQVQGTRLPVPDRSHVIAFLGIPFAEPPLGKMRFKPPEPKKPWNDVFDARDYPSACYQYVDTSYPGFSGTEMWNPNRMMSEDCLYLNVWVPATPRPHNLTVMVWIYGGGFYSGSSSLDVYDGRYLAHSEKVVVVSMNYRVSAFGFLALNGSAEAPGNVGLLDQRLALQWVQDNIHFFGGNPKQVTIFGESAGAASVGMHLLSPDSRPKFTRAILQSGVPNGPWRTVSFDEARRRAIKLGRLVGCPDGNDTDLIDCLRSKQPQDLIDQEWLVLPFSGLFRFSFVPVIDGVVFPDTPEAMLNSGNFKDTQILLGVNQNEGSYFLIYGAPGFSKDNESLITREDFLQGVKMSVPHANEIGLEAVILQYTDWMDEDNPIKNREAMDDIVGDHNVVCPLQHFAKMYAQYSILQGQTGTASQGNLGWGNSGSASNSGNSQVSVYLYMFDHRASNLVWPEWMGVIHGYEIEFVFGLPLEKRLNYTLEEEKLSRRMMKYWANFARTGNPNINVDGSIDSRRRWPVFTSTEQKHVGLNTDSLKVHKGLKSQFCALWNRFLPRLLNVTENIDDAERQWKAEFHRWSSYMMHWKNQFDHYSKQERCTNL

Carboxylic ester hydrolase, sequence (Q9N1N9 whole entry): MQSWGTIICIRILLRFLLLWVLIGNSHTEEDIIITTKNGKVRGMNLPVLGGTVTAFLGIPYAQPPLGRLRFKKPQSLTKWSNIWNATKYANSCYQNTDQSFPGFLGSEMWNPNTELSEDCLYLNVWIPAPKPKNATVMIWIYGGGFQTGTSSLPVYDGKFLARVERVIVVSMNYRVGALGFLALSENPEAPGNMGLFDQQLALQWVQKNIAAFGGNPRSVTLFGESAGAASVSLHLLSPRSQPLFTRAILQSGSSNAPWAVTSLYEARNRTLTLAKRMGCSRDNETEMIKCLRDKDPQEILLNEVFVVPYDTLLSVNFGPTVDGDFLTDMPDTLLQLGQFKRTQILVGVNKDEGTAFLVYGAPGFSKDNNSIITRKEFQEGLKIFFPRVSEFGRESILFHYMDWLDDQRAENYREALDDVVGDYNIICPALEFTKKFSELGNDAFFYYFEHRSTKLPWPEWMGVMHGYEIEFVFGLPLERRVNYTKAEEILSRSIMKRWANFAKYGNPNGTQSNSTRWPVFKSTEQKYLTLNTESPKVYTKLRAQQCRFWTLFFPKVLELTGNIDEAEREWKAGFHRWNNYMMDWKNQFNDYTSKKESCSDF

Structure (SMILES)	IC50 [1]	IC50 [2]
CCOP(=O)(OCC)Oc1cc(Cl)ccc1C(=O)Nc1cccc(Br)c1 [2-[(3-bromophenyl)carbamoyl]-5-chlorophenyl diethyl phosphate (20)]	1.77 µM	35.4 µM
CCOP(=O)(OCC)Oc1cc(Cl)ccc1C(=O)Nc1ccc(Br)cc1 [2-[(4-bromophenyl)carbamoyl]-5-chlorophenyl diethyl phosphate (23)]	8.76 µM	55.1 µM
CCOP(=O)(OCC)Oc1ccc(Cl)cc1C(=O)Nc1cccc(Br)c1 [2‐[(3‐bromophenyl)carbamoyl]‐4‐chlorophenyl  diethyl phosphate (16)]	16.9 µM	63.3 µM
CCOP(=O)(OCC)Oc1ccc(Cl)cc1C(=O)Nc1ccc(Br)cc1 [2‐[(4‐bromophenyl)carbamoyl]‐4‐chlorophenyl  diethyl phosphate (14)]	40.2 µM	59.2 µM
CCOP(=O)(OCC)Oc1ccc(Br)cc1C(=O)Nc1ccc(Cl)c(Cl)c1 [4‐bromo‐2‐[(3,4‐dichlorophenyl)carbamoyl]phenyl  diethyl phosphate (4)]	49.6 µM	55.2 µM
CCOP(=O)(OCC)Oc1ccc(Br)cc1C(=O)Nc1cccc(Br)c1 [4‐bromo‐2‐[(3‐bromophenyl)carbamoyl]phenyl diethyl  phosphate (7)]	18 µM	70.3 µM
CCOP(=O)(OCC)Oc1ccc(Br)cc1C(=O)Nc1cccc(Cl)c1 [4‐bromo‐2‐[(3‐chlorophenyl)carbamoyl]phenyl  diethyl phosphate (2)]	24.4 µM	79.9 µM
CCOP(=O)(OCC)Oc1ccc(Br)cc1C(=O)Nc1cccc(F)c1 [4‐bromo‐2‐[(3‐fluorophenyl)carbamoyl]phenyl  diethyl phosphate (1)]	68.3 µM	69.8 µM
CCOP(=O)(OCC)Oc1ccc(Br)cc1C(=O)Nc1ccc(Br)cc1 [4‐bromo‐2‐[(4‐bromophenyl)carbamoyl]phenyl diethyl  phosphate (8)]	13 µM	50.8 µM
CCOP(=O)(OCC)Oc1ccc(Br)cc1C(=O)Nc1ccc(Cl)cc1 [4‐bromo‐2‐[(4‐chlorophenyl)carbamoyl]phenyl  diethyl phosphate (3)]	19.9 µM	45.5 µM
CCOP(=O)(OCC)Oc1ccc(Br)cc1C(=O)Nc1ccc(F)cc1 [4‐bromo‐2‐[(4‐fluorophenyl)carbamoyl]phenyl  diethyl phosphate (9)]	22.7 µM	53.7 µM
CCOP(=O)(OCC)Oc1ccc(Br)cc1C(=O)Nc1cccc(C(F)(F)F)c1 [4‐bromo‐2‐{[3‐ (trifluoromethyl)phenyl]carbamoyl}phenyl diethyl  phosphate (5)]	14.3 µM	46.1 µM
CCOP(=O)(OCC)Oc1ccc(Br)cc1C(=O)Nc1ccc(C(F)(F)F)cc1 [4‐bromo‐2‐{[4‐ (trifluoromethyl)phenyl]carbamoyl}phenyl diethyl  phosphate (6)]	10.3 µM	56.7 µM
CCOP(=O)(OCC)Oc1ccc(Cl)cc1C(=O)Nc1ccc(Cl)c(Cl)c1 [4‐chloro‐2‐[(3,4‐dichlorophenyl)carbamoyl]phenyl  diethyl phosphate (15)]	40.3 µM	80.9 µM
CCOP(=O)(OCC)Oc1ccc(Cl)cc1C(=O)Nc1cccc(Cl)c1 [4‐chloro‐2‐[(3‐chlorophenyl)carbamoyl]phenyl  diethyl phosphate (10)]	28.1 µM	64.3 µM
CCOP(=O)(OCC)Oc1ccc(Cl)cc1C(=O)Nc1cccc(F)c1 [4‐chloro‐2‐[(3‐fluorophenyl)carbamoyl]phenyl  diethyl phosphate (12)]	31.6 µM	61.1 µM
CCOP(=O)(OCC)Oc1ccc(Cl)cc1C(=O)Nc1ccc(Cl)cc1 [4‐chloro‐2‐[(4‐chlorophenyl)carbamoyl]phenyl  diethyl phosphate (11)]	42.1 µM	60.9 µM
CCOP(=O)(OCC)Oc1ccc(Cl)cc1C(=O)Nc1ccc(F)cc1 [4‐chloro‐2‐[(4‐fluorophenyl)carbamoyl]phenyl  diethyl phosphate (13)]	20.5 µM	48.5 µM
CCOP(=O)(OCC)Oc1ccc(Cl)cc1C(=O)Nc1cccc(C(F)(F)F)c1 [4‐chloro‐2‐{[3‐ (trifluoromethyl)phenyl]carbamoyl}phenyl diethyl  phosphate (17)]	24.8 µM	51.5 µM
CCOP(=O)(OCC)Oc1ccc(Cl)cc1C(=O)Nc1ccc(C(F)(F)F)cc1 [4‐chloro‐2‐{[4‐ (trifluoromethyl)phenyl]carbamoyl}phenyl diethyl  phosphate (18)]	20.9 µM	41.6 µM
CCOP(=O)(OCC)Oc1cc(Cl)ccc1C(=O)Nc1ccc(Cl)c(Cl)c1 [5-chloro-2-[(3,4-dichlorophenyl)carbamoyl]phenyl diethyl phosphate (25)]	0.903 µM	45.5 µM
CCOP(=O)(OCC)Oc1cc(Cl)ccc1C(=O)Nc1cccc(Cl)c1 [5-chloro-2-[(3-chlorophenyl)carbamoyl]phenyl diethyl phosphate (19)]	3.68 µM	41.1 µM
CCOP(=O)(OCC)Oc1cc(Cl)ccc1C(=O)Nc1cccc(F)c1 [5-chloro-2-[(3-fluorophenyl)carbamoyl]phenyl diethyl phosphate (21)]	11.5 µM	60.2 µM
CCOP(=O)(OCC)Oc1cc(Cl)ccc1C(=O)Nc1ccc(Cl)cc1 [5-chloro-2-[(4-chlorophenyl)carbamoyl]phenyl diethyl phosphate (24)]	5.01 µM	60.9 µM
CCOP(=O)(OCC)Oc1cc(Cl)ccc1C(=O)Nc1ccc(F)cc1 [5-chloro-2-[(4-fluorophenyl)carbamoyl]phenyl diethyl phosphate (22)]	4.43 µM	80.8 µM
CCOP(=O)(OCC)Oc1cc(Cl)ccc1C(=O)Nc1cccc(C(F)(F)F)c1 [5-chloro-2-{[3-(trifluoromethyl)phenyl]carbamoyl}phenyl diethyl phosphate (26)]	3.53 µM	71.9 µM
CCOP(=O)(OCC)Oc1cc(Cl)ccc1C(=O)Nc1ccc(C(F)(F)F)cc1 [5-chloro-2-{[4-(trifluoromethyl)phenyl]carbamoyl}phenyl diethyl phosphate (27)]	9.84 µM	86.3 µM
